pKd: −log10 of the molar value. Read-outs that look alike come from different tables or passages of the source.
Legend:
[1] = target: FKBP12 (Homo sapiens, UniProt P62942); assay: In vitro FKBP12 binding assay (GdnHCl unfolding); conditions: relative to literature Kd of rapamycin 0.2 nM
Excerpt: FKBP12 reversibly unfolds in the chemical denaturant guandinium hydrochloride (GdnHCl) and the unfolding can be monitored by the change in the intrinsic fluorescence of the protein (Main et al, 1998). Ligands which specifically bind and stabilise the native state of FKBP12 shift the denaturation curve such that the protein unfolds at higher concentrations of chemical denaturant (Main et al, 1999). From the difference in stability, the ligand-binding constant can be determined using equation 1.
where ΔGapp is the apparent difference in free energy of unfolding between free and ligand-bound forms, ΔGD−N^H^2^O is the free energy of unfolding in water of free protein, [L] the concentration of ligand and kd the dissociation constant for the protein-ligand complex (Meiering et al, 1992). The free energy of unfolding can be related to the midpoint of the unfolding transition using the following equation: […]
where mD−N is a constant for a given protein and given denaturant and which is proportional to the change in degree of exposure of residues on unfolding (Tanford 1968 and Tanford 1970), and [D]50% is the concentration of denaturant corresponding to the midpoint of unfolding.
where <mD−N> is the average m-value of the unfolding transition and Δ[D]50% the difference in midpoints for the rapamycin-FKBP12 unfolding transition and unknown-ligand-FKBP12 complex unfolding transition. Under conditions where [L]>Kd, then, ΔΔGD−N, can be related to the relative Kds of the two compounds through equation 4: […]

[2] = test system: U87-MG; assay: Glioma orthotopically xenografted in nude mice, MRI tumour volume; type: in vivo; conditions: 3 mg/kg/inj IV, (Q1D×3)×5W, MRI at D23, mean of 4 values
Method: The test compound was dissolved in ethanol (0.027 mL/mg compound) and vortexed for 20 min until the solution was clear. Ethanolic solutions were aliquoted as appropriate and stored at −20° C.
The test substance and control vehicle were administered intravenously (IV, bolus) by injection into the caudal vein of the test mice. An injection volume of 10 mL/kg was used, based on the most recent body weight of mice.
The cell line used for the study was U87-MG, a glioblastoma cell line initiated by J. Ponten from a […] glioblastoma from a person (Poten et al., 1968).
Mice were stereotaxically injected with U87-MG cells at D, 24 to 48 hours after a whole body irradiation with a γ-source (2.5 Gy, Co^60, INRA BRETENIERE, Dijon). For the stereotaxic injection of tumour cells, mice were anesthetised by an intraperitoneal injection of Ketamine 100 mg/kg (Ketamine500®, Ref 043KET204, Centravet, France) and Xylazine 5 mg/kg (Rompun®, Ref 002ROM001, Centravet, France) in 0.9% NaCl solution at 10 mL/kg/inj. […]
After tripilot acquisitions, a turboRare T2 weighted sequence was performed. […] The tumour volume was determined by manually drawing a region of interest (ROI) around the tumour in each slice and by summation of all the surfaces.
Additionally the MRI analysis was used to calculate the average calculated tumour volume per treatment group, the results are summarised in Table 13 below. […]

[3] = test system: Caco-2 cells; assay: Caco-2 permeation assay; conditions: 0.01 mM
Method: Confluent Caco-2 cells (Li, A. P., 1992; Grass, G. M., et al., 1992, Volpe, D. A., et al., 2001) in a 24 well Corning Costar Transwell format were provided by In Vitro Technologies Inc. (IVT Inc., Baltimore, Md., USA). The apical chamber contained 0.15 mL Hank's balanced buffer solution (HBBS) pH 7.4, 1% DMSO, 0.1 mM Lucifer Yellow. The basal chamber contained 0.6 mL HBBS pH 7.4, 1% DMSO. Controls and tests were incubated at 37° C. in a humidified incubator, shaken at 130 rpm for 1 h. Lucifer Yellow permeates via the paracellular (between the tight junctions) route only, a high Apparent Permeability (Papp) for Lucifer Yellow indicates cellular damage during assay and all such wells were rejected. […] Compounds were tested in a uni- and bi-directional format by applying compound to the apical or basal chamber (at 0.01 mM). Compounds in the apical or basal chambers were analysed by HPLC-MS (Method A, see Materials & Methods). Results were expressed as Apparent Permeability, Papp, (nm/s) and as the Flux Ratio (A to B versus B to A).
[formula] • Volume Acceptor: 0.6 ml (A>B) and 0.15 ml (B>A) • Area of monolayer: 0.33 cm2 • Δtime: 60 min
A positive value for the Flux Ratio indicates active efflux from the apical surface of the cells.

[4] = Pharmacokinetic analysis Protocol 2 (blood and brain); type: in vivo, female Balb C mice; conditions: female, Balb C, mouse; for Kp: brain / whole blood; for AUC: whole blood, blood, 0-24 h
Method: To prepare the dosing solution, 5 mg test compound was dissolved in 100 μL ethanol resulting in a compound solution of 50 mg/mL. The solution was then diluted to 2 mg/mL by adding approximately 2.4 mL 0.15 M NaCl (0.9% w/v saline), 5% v/v Tween 20 and 5% v/v PEG 400 (final ethanol conc. 4% v/v).
A single dose of 10 mg/kg p.o. or 2 mg/kg i.v. of test compound at a concentration of 10 mg/kg p.o or 2 mg/kg i.v. was administered to groups of 3 female Balb C mice. At 5 min, 15 min, 60 min, 4 h, 8 h and 24 h, groups were sacrificed and whole blood samples of approximately 0.2 mL were retrieved in EDTA to give a final concentration of 0.5 mM, additionally the brains were removed.

Sequence of FKBP12 (P62942 whole entry, species assumed): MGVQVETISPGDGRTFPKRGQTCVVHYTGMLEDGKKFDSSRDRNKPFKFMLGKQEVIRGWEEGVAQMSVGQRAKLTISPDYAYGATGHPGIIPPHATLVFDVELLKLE

Compound | pKd [1] | average calculated tumour volume, Day 23 (mm^3) [2] | Caco-2: Efflux Ratio ([3]; bi-directional format) | Caco-2: Papp ([3]; pH 7.4, 1 h) | Kp ([4]; intravenous, PK protocol 2, 2 mg/kg i.v., read-out: Ri i.v. (partition coefficient)) | Kp ([4]; oral, PK protocol 2, 10 mg/kg p.o., read-out: Ri p.o. (partition coefficient)) | AUC ([4]; iv, PK protocol 2, 2 mg/kg i.v., read-out: AUCBLOOD i.v.) | AUC ([4]; po, PK protocol 2, 10 mg/kg p.o., read-out: AUCBLOOD p.o.)
COC1CC2CCC(C)C(O)(O2)C(=O)C(=O)N2CCCCC2C(=O)OC(C(C)CC2CCC(O)CC2)CC(=O)C(C)C=C(C)C(O)C(OC)C(=O)C(C)CC(C)C=CC=CC=C1C (centres unmarked) [39-desmethoxyrapamycin] | 9.15 | 1.25 mm^3 | 15 | 2.9 ×10⁻⁶ cm/s |  |  |  | 
CO[C@H]1C[C@@H]2CC[C@@H](C)[C@@](O)(O2)C(=O)C(=O)N2CCCC[C@H]2C(=O)O[C@H]([C@H](C)C[C@@H]2CC[C@@H](O)[C@H](OC)C2)CC(=O)[C@H](C)/C=C(\C)[C@@H](O)[C@@H](OC)C(=O)[C@H](C)C[C@H](C)/C=C/C=C/C=C/1C [Rapamycin] |  |  |  |  | 0.255 | 0.066 | 24900 ng·h/mL | 25200 ng·h/mL
